In patent publication EP2982368A1, “Small molecule compounds displacing focal adhesion core components” (Universität Konstanz, priority 2014, dated 2016):

Target: T1, FAK/Paxillin (Mus musculus, UniProt P34152+Q8VI36)
T1 construct: expressed in transfected cells; host or cells: mouse fibroblasts stably expressing GFP-FAK
Assay: FAK/Paxillin displacement by structurally related compounds (FootLocker series, confocal microscopy)
Assay type: cell-based
Parameters: key to Activtiy (activity towards FAK/Paxillin displacement): ++ indicates displacing effect at 5 µM; + at 20 µM; - indicates no observed effect
Method: To determine whether compounds structurally related to Mb31 and Mb36 are likewise suitable to interfere with FAK localization at focal adhesions, mouse fibroblasts stably expressing GFP-FAK were treated for 30 min with 1, 10 or 20 µM of the following compounds: trans-3-hydroxy-β-nitrostyrene (THBN), trans-4-Chloro-β-nitrostyrene (T4CN), trans-β-nitrostyrene (TBN), 4-chlorocinnamic acid (4CA), and trans-3-(4-bromothiophen-2-yl)acrylic acid (T34BA) (Figures 16 and 17). The cells were analyzed by confocal microscopy for GFP-FAK localization. DMSO treatment served as a vehicle control. […] Additional substituents at the aromatic structures, such as halogen atoms or hydroxy groups may contribute to the reactivity of the compound, but are not essential. Based on these findings, the inventors have extended their structure activity-relationship studies and synthesized additional related compounds, which, similar to Mb31, displace FAK and paxillin at concentrations below 10µM (++), displace FAK and paxillin at concentrations above 10 µM (+), or lack FAK and paxillin displacing activity (-). All these substances were then also nicknamed in the FLocker terminology, resulting in FLocker1 - FLocker24 (Table 2). Table 2: Overview of FootLocker nomenclature, their chemical notation/structure and the activity towards FAK/Paxillin displacement

T1 sequence (P34152 whole entry): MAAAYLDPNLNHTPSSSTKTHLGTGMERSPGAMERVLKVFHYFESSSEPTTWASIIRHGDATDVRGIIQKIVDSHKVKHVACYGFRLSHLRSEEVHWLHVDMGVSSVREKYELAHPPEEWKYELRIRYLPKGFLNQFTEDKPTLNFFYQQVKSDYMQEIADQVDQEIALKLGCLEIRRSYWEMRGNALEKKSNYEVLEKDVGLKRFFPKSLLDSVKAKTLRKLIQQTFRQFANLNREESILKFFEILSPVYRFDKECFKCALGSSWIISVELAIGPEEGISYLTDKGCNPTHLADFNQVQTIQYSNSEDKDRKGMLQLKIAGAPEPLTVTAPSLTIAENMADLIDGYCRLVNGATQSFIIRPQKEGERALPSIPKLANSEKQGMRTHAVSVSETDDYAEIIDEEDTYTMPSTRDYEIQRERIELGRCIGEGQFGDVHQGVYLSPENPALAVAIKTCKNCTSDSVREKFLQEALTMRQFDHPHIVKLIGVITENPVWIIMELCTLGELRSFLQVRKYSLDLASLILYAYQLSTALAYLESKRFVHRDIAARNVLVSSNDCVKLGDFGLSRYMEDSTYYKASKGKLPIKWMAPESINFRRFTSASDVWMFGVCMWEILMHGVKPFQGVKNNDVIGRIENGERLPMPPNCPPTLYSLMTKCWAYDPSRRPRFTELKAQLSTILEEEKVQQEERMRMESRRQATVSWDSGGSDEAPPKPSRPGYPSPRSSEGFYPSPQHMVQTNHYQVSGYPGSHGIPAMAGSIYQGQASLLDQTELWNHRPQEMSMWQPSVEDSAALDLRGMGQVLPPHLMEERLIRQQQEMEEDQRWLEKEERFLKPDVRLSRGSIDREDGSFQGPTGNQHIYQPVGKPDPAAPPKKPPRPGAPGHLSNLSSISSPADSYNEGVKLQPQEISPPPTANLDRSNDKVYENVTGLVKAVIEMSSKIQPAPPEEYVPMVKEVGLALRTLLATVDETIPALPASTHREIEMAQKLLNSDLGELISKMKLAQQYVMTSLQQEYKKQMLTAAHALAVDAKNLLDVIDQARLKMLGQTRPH
T1 sequence (Q8VI36 whole entry): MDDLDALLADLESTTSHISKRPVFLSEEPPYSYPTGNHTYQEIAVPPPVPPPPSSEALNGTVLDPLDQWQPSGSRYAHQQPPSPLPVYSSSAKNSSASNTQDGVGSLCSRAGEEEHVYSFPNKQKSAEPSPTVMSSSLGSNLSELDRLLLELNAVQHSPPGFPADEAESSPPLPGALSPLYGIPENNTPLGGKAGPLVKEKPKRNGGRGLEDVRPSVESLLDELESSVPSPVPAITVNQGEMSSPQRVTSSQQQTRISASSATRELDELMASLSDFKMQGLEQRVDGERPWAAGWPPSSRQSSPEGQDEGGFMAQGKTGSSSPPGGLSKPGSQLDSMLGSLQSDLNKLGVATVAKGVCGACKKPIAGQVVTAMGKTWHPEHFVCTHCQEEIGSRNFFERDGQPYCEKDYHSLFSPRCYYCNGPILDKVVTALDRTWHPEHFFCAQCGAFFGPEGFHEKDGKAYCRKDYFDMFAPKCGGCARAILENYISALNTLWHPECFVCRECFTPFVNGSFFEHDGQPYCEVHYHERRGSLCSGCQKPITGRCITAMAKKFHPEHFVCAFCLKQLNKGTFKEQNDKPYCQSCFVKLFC

COc1cccc(/C=C/[N+](=O)[O-])c1 [compound 4]
Activtiy (activity towards FAK/Paxillin displacement): ++ (++ indicates displacing effect at 5 µM)

O=[N+]([O-])/C=C/c1cccc(Br)c1 [compound 11]
Activtiy (activity towards FAK/Paxillin displacement): + (+ at 20 µM)

O=[N+]([O-])/C=C/c1cccc(O)c1 [compound 3]
Activtiy (activity towards FAK/Paxillin displacement): ++ (++ indicates displacing effect at 5 µM)

O=[N+]([O-])/C=C/c1cccc([N+](=O)[O-])c1 [FootLocker 13, (E)-1-nitro-3-(2-nitrovinyl)benzene]
compounds showing the most prominent effect on protein-protein interactions at focal adhesion site: most prominent effect
disruption of protein-protein interactions at focal adhesion site: efficiently disrupt protein-protein interactions at focal adhesion site

O=[N+]([O-])/C=C/c1cccnc1 [compound 18]
Activtiy (activity towards FAK/Paxillin displacement): + (+ at 20 µM)

O=[N+]([O-])/C=C/c1cccc(Cl)c1 [compound 12]
Activtiy (activity towards FAK/Paxillin displacement): + (+ at 20 µM)

(E)-ethyl 6-(4-(2-nitrovinyl)phenoxy)hexanoate [FootLocker 5]
disruption of protein-protein interactions at focal adhesion site: efficiently disrupt protein-protein interactions at focal adhesion site

O=[N+]([O-])C=Cc1cccnc1 [FootLocker 18, 3-(2-nitro-vinyl)-pyridine]
disruption of protein-protein interactions at focal adhesion site: efficiently disrupt protein-protein interactions at focal adhesion site

O=[N+]([O-])/C=C/c1cccc(Cl)c1 [FootLocker 12, (E)-1-chloro-3-(2-nitrovinyl)benzene]
disruption of protein-protein interactions at focal adhesion site: efficiently disrupt protein-protein interactions at focal adhesion site

O=[N+]([O-])C=Cc1ccco1 [FootLocker 17, 2-(2-Nitrovinyl)-furan]
compounds showing the most prominent effect on protein-protein interactions at focal adhesion site: most prominent effect
disruption of protein-protein interactions at focal adhesion site: efficiently disrupt protein-protein interactions at focal adhesion site

O=[N+]([O-])/C=C/c1ccccc1O [compound 8]
Activtiy (activity towards FAK/Paxillin displacement): + (+ at 20 µM)

C/C(=C\c1ccc(Br)cc1)[N+](=O)[O-] [FootLocker 16, 1-bromo-4-[(1E)-2-nitro-1-propenyl]benzene]
compounds showing the most prominent effect on protein-protein interactions at focal adhesion site: most prominent effect
disruption of protein-protein interactions at focal adhesion site: efficiently disrupt protein-protein interactions at focal adhesion site

O=[N+]([O-])/C=C/c1cccc(Br)c1 [FootLocker 11, (E)-1-bromo-3-(2-nitrovinyl)benzene]
disruption of protein-protein interactions at focal adhesion site: efficiently disrupt protein-protein interactions at focal adhesion site

O=[N+]([O-])/C=C/c1c[nH]c2ccccc12 [compound 19]
Activtiy (activity towards FAK/Paxillin displacement): -

[N-]=[N+]=NCCOCCOCCOCCNC(=O)CCCCCCOc1cccc(C=O)c1 [compound 6]
Activtiy (activity towards FAK/Paxillin displacement): -

C/C(=C\c1ccc(Br)cc1)[N+](=O)[O-] [compound 16]
Activtiy (activity towards FAK/Paxillin displacement): ++ (++ indicates displacing effect at 5 µM)

CCOC(=O)CCCCCOc1ccc(/C=C/[N+](=O)[O-])cc1 [compound 5]
Activtiy (activity towards FAK/Paxillin displacement): + (+ at 20 µM)

COc1cccc(/C=C/[N+](=O)[O-])c1 [FootLocker 4, (E)-1-methoxy-3-(2-nitrovinyl)benzene]
compounds showing the most prominent effect on protein-protein interactions at focal adhesion site: most prominent effect
disruption of protein-protein interactions at focal adhesion site: efficiently disrupt protein-protein interactions at focal adhesion site

O=[N+]([O-])/C=C/c1cn(-c2ccccc2)c2ccccc12 [compound 20]
Activtiy (activity towards FAK/Paxillin displacement): -

O=C/C=C/c1ccc(Cl)cc1 [compound 22]
Activtiy (activity towards FAK/Paxillin displacement): -

[N-]=[N+]=NCCOCCOCCOCCNC(=O)CCCCCCOc1cccc(/C=C/[N+](=O)[O-])c1 [compound 7]
Activtiy (activity towards FAK/Paxillin displacement): + (+ at 20 µM)

O=[N+]([O-])/C=C/c1ccccc1F [compound 9]
Activtiy (activity towards FAK/Paxillin displacement): ++ (++ indicates displacing effect at 5 µM)

O=[N+]([O-])/C=C/c1ccco1 [compound 17]
Activtiy (activity towards FAK/Paxillin displacement): ++ (++ indicates displacing effect at 5 µM)

C/C(=C\c1ccccc1)[N+](=O)[O-] [FootLocker 15, (E)-(2-nitroprop-1-en 1-yl)benzene]
disruption of protein-protein interactions at focal adhesion site: efficiently disrupt protein-protein interactions at focal adhesion site

O=[N+]([O-])/C=C/c1ccccc1O [FootLocker 8, (E)-2-(2-nitrovinyl)phenol]
disruption of protein-protein interactions at focal adhesion site: efficiently disrupt protein-protein interactions at focal adhesion site

O=C(O)/C=C/c1cc(Br)cs1 [compound 24]
Activtiy (activity towards FAK/Paxillin displacement): -

Nc1ccc(SC(C[N+](=O)[O-])c2ccc(Cl)cc2)cc1 (stereo not shown) [compound 2]
Activtiy (activity towards FAK/Paxillin displacement): ++ (++ indicates displacing effect at 5 µM)

O=[N+]([O-])/C=C/c1ccc(F)cc1 [compound 14]
Activtiy (activity towards FAK/Paxillin displacement): ++ (++ indicates displacing effect at 5 µM)

Cc1ccc(/C=C/[N+](=O)[O-])cc1 [FootLocker 10, (E)-1-methyl-4-(2-nitrovinyl) benzene]
compounds showing the most prominent effect on protein-protein interactions at focal adhesion site: most prominent effect
disruption of protein-protein interactions at focal adhesion site: efficiently disrupt protein-protein interactions at focal adhesion site

O=[N+]([O-])/C=C/c1cc(Br)cs1 [compound 1]
Activtiy (activity towards FAK/Paxillin displacement): ++ (++ indicates displacing effect at 5 µM)

Cc1ccc(/C=C/[N+](=O)[O-])cc1 [compound 10]
Activtiy (activity towards FAK/Paxillin displacement): ++ (++ indicates displacing effect at 5 µM)

[N-]=[N+]=NCCOCCOCCOCCNC(=O)CCCCCCOc1cccc(/C=C/[N+](=O)[O-])c1 [FootLocker 7, (E)-N-(2-(2-(2-(2-azidoethoxy)ethoxy)ethoxy)ethyl)-7-(3-(2-nitrovinyl)phenoxy)heptanamide]
disruption of protein-protein interactions at focal adhesion site: efficiently disrupt protein-protein interactions at focal adhesion site
